How the values were obtained:
[1] = tested on: Aspergillus fumigatus; experiment: Antimycotic in vitro activity, series dilution test (MIC), Aspergillus fumigatus; assay type: cell-based; parameters: unit not given here; conditions: Sabourand's milieu d'epreuve, 20° C., 96 hours
Method: (§1) Description of the experiment:
(§2) The in vitro tests were carried out in a series dilution test with germ inocula of an average of 5×10^4 germs/ml of substrate. The nutrient medium was (a) for dermatophytes and moulds: Sabourand's milieu d'epreuve and (b) for yeasts: meat extract/glucose broth.
(§3) The incubation temperature was 20° C. and the duration of incubation was 24 to 96 hours in the case of yeasts and 96 hours in the case of dermatophytes and moulds.

[2] = tested on: Candida albicans; experiment: Antimycotic in vitro activity, series dilution test (MIC), Candida albicans; assay type: cell-based; parameters: unit not given here; conditions: meat extract/glucose broth, 20° C., 24 to 96 hours
Method: as §1, §2, §3

[3] = tested on: Trichophyton mentagr.; experiment: Antimycotic in vitro activity, series dilution test (MIC), Trichophyton mentagr.; assay type: cell-based; parameters: unit not given here; conditions: Sabourand's milieu d'epreuve, 20° C., 96 hours
Method: as §1, §2, §3

[4] = tested on: Torulopsis glabrata; experiment: Antimycotic in vitro activity, series dilution test (MIC), Torulopsis glabrata; assay type: cell-based; parameters: unit not given here; conditions: meat extract/glucose broth, 20° C., 24 to 96 hours
Method: as §1, §2, §3

[5] = tested on: Microsporum canis; experiment: Antimycotic in vitro activity, series dilution test (MIC), Microsporum canis; assay type: cell-based; parameters: unit not given here; conditions: Sabourand's milieu d'epreuve, 20° C., 96 hours
Method: as §1, §2, §3

[6] = tested on: Candida cells; experiment: Antimycotic in vivo activity (oral) in candidosis of mice; parameters: species or system Mice of the SPF-CF1 type; conditions: 50-100 mg/kg
Method: Description of the experiment
Mice of the SPF-CF1 type were infected intravenously with 1-2×10^6 logarithmically growing Candida cells, which are suspended in physiological sodium chloride solution. The animals were treated orally one hour before and seven hours after the infection, with, in each case, 50-100 mg/kg of body weight of the formulations.
Untreated animals died 3 to 6 days after infection. The survival rate on the 6th day after infection was about 5% in the case of untreated control animals.

[7] = tested on: dermatophytes, moulds and yeasts; experiment: Antimycotic in vitro activity, series dilution test, overall comparison; assay type: cell-based
Method: as §1, §2, §3

[8] = tested on: trichophyton of mentagrophytes; experiment: Antimicrobial in vivo activity (local) in the model of experimental guinea-pig trichophytosis; conditions: once daily, 15% strength solution

Compound | action compared with compounds (A), (B), (C) and (D) [6] | antimycotic action in vitro compared with compounds (A), (B), (C) and (D) [7] | action (statement in words) [8] | also measured
1-(2-methylphenoxy)-3,3-dimethyl-2-(1,2,4-triazol-1-yl-methyl)-2-butanol [(C)] | – | – | – | MIC values [1]: > 64; MIC values [2]: 32; MIC values [3]: 32; MIC values [4]: > 64
1-(2-methylphenoxy)-3,3-dimethyl-2-(imidazol-1-yl-methyl)-2-butanol [(B)] | – | – | – | MIC values [1]: 32; MIC values [2]: 32; MIC values [3]: 4; MIC values [5]: 4; MIC values [4]: > 64
CC(C)(C1OCCO1)C(O)(Cn1cncn1)c1ccc(Cl)cc1 (stereo not shown) [Example 3, 3-(1,3-dioxolan-2-yl)-2-(4-chlorophenyl)-3-methyl-1-(1,2,4-triazol-1-yl)-butan-2-ol] | better action | better antimycotic action | – | –
CC(C)(C1OCCO1)C(O)(CCc1ccc(Cl)cc1Cl)Cn1cncn1 (stereo not shown) [Example 5, 1-(2,4-dichlorophenyl)-4-(1,3-dioxolan-2-yl)-4-methyl-3-(1,2,4-triazol-1-yl-methyl)-pentan-3-ol naphthalene-1,5-disulphonate] | – | better antimycotic action | – | –
CC(C)(C1OCCO1)C(O)(CCc1ccc(Cl)cc1)Cn1cncn1 (stereo not shown) [Example 7] | better action | better antimycotic action | an action or a good action | –
CC1(C(O)(CCc2ccc(Cl)cc2Cl)Cn2cncn2)COCOC1 (stereo not shown) [Example 8] | better action | better antimycotic action | an action or a good action | –
CC1(C(O)(CCc2ccc(Cl)cc2)Cn2cncn2)COCOC1 (stereo not shown) [Example 9] | better action | better antimycotic action | an action or a good action | –
CC(C)(C1OCCO1)C(O)(C=Cc1ccc(Cl)cc1)Cn1cncn1 (stereo not shown) [Example 10] | better action | better antimycotic action | an action or a good action | –
CC(C)(C1OCCO1)C(O)(C=Cc1ccc(Cl)cc1Cl)Cn1cncn1 (stereo not shown) [Example 11] | – | better antimycotic action | – | –
CC1(C(O)(C=Cc2ccc(Cl)cc2)Cn2cncn2)COCOC1 (stereo not shown) [Example 12] | – | better antimycotic action | – | –
CC1(C(O)(C=Cc2ccc(Cl)cc2)Cn2cncn2)COCOC1 (stereo not shown) [Example 13] | – | better antimycotic action | – | –
CC(C)(C1OCCO1)C(O)(COc1ccc(-c2ccccc2)cc1)Cn1cncn1 (stereo not shown) [Example 14] | better action | better antimycotic action | an action or a good action | –
CC(C)(C1OCCO1)C(O)(COc1ccc(Cl)cc1)Cn1cncn1 (stereo not shown) [Example 15] | better action | better antimycotic action | – | –
CC1(C(O)(COc2ccc(Cl)cc2)Cn2cncn2)COCOC1 (stereo not shown) [Example 16] | better action | better antimycotic action | – | –
CC(C)(C1OCCO1)C(O)(CCc1ccc(Cl)cc1)Cn1ccnc1 (stereo not shown) [Example 19] | better action | better antimycotic action | an action or a good action | –
CC(C)(C1OCCO1)C(O)(CCc1ccc(Cl)cc1Cl)Cn1ccnc1 (stereo not shown) [Example 20] | better action | better antimycotic action | an action or a good action | –
CC1(C(O)(CCc2ccc(Cl)cc2Cl)Cn2ccnc2)COCOC1 (stereo not shown) [Example 21] | better action | better antimycotic action | an action or a good action | –
CC1(C(O)(CCc2ccc(Cl)cc2)Cn2ccnc2)COCOC1 (stereo not shown) [Example 22] | better action | – | an action or a good action | –
CC(C)(C1OCCO1)C(O)(C=Cc1ccc(Cl)cc1)Cn1ccnc1 (stereo not shown) [Example 23] | better action | better antimycotic action | an action or a good action | –
CC1(C(O)(COc2ccc(Cl)cc2)Cn2ccnc2)COCOC1 (stereo not shown) [Example 26] | better action | – | – | –

Source: patent US4632932A, “Antimycotic agents” (Bayer Aktiengesellschaft, priority 1982, dated 1986)
